Experimental data published in patent publication US20240158446A1, “CYCLIC COMPOUND HAVING SELECTIVE INHIBITORY ACTION ON KRAS OVER HRAS AND NRAS” (CHUGAI SEIYAKU KABUSHIKI KAISHA, priority 2021, published 2024).

Legend:
[1] = biological target: GDP-bound KRAS wild-type protein (Homo sapiens, UniProt P01116); experiment: Binding to KRAS by surface plasmon resonance (SPR), Single Cycle Kinetics; details: SPR, Single Cycle Kinetics, 1:1 binding model; GDP-bound KRAS wild-type protein; read-out: KRAS KD
[2] = biological target: GDP-bound NRAS wild-type protein (Homo sapiens, UniProt P01111); experiment: Binding to NRAS by surface plasmon resonance (SPR), Single Cycle Kinetics; details: SPR; GDP-bound NRAS wild-type protein vs GDP-bound KRAS wild-type protein; KD ratio class
[3] = biological target: GDP-bound HRAS wild-type protein (Homo sapiens, UniProt P01112); experiment: Binding to HRAS by surface plasmon resonance (SPR), Single Cycle Kinetics; details: SPR; GDP-bound HRAS wild-type protein vs GDP-bound KRAS wild-type protein; KD ratio class
[4] = system: human lung cancer strain NCI-H441;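 further: cell proliferation inhibition after four days measured by CellTiter-Glo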

GDP-bound KRAS wild-type protein, sequence (P01116 whole entry): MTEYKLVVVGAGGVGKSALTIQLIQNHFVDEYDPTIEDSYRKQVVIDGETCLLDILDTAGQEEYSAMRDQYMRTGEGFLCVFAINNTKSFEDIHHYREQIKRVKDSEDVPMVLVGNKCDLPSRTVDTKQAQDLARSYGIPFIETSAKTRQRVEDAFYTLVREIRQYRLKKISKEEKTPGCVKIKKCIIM
GDP-bound HRAS wild-type protein, sequence (P01112 whole entry): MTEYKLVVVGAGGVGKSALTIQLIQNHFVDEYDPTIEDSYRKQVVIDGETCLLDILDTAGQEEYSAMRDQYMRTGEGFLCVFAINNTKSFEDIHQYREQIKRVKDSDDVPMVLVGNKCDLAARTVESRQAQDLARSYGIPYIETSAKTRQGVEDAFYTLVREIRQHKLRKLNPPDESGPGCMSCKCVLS
GDP-bound NRAS wild-type protein, sequence (P01111 whole entry): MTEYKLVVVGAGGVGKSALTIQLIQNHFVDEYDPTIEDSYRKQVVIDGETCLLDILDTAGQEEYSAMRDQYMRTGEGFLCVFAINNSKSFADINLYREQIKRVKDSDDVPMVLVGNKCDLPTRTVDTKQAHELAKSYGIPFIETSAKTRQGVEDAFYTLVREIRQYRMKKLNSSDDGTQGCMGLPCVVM

## CCO[C@@H]1C[C@H]2C(=O)NC3(CCC3)C(=O)N(C)[C@@H](C3CCCC3)C(=O)N(C)[C@H](C(=O)N3CCCC3)CC(=O)N(C)[C@@H](CC3CC3)C(=O)N[C@@H]([C@@H](C)CC)C(=O)N(C)CC(=O)N(C)[C@H]3C/C=C\CCN(C3=O)[C@@H](Cc3ccc(C)cc3)C(=O)N(C)CC(=O)N[C@@H](CCc3cc(F)c(C(F)(F)F)c(F)c3)C(=O)N2C1 [PP1409]
[1]
  Kd: 0.21 nM
[2]
  NRAS/KRAS (ratio of KD value for NRAS to KD value for KRAS): A (a compound having 10 or more and less than 20 is denoted as A)
[3]
  HRAS/KRAS (ratio of KD value for HRAS to KD value for KRAS): A (a compound having 10 or more and less than 20 is denoted as A)
[4]
  IC50: 43.5 nM

## CCO[C@@H]1C[C@H]2C(=O)NC3(CCC3)C(=O)N(C)[C@@H](C3CCCC3)C(=O)N(C)[C@H](C)CC(=O)N(C)[C@@H](CC3CC3)C(=O)N[C@@H]([C@@H](C)CC)C(=O)N(C)CC(=O)N(C)[C@H]3C/C=C\CCN(C3=O)[C@@H](Cc3ccc(C)cc3)C(=O)N(C)CC(=O)N[C@@H](CCc3cc(F)c(C(F)(F)F)c(F)c3)C(=O)N2C1 [PP1410]
[1]
  Kd: 0.32 nM
[2]
  NRAS/KRAS (ratio of KD value for NRAS to KD value for KRAS): B (a compound having 3 or more and less than 10 is denoted as B)
[3]
  HRAS/KRAS (ratio of KD value for HRAS to KD value for KRAS): B (a compound having 3 or more and less than 10 is denoted as B)
[4]
  IC50: 51 nM

## CCO[C@@H]1C[C@H]2C(=O)NC3(CCC3)C(=O)N(C)[C@@H](C3CCCC3)C(=O)N(C)[C@H](C(=O)N(C)C)CC(=O)N(C)[C@@H](CC3CCCC3)C(=O)N[C@@H]([C@@H](C)CC)C(=O)N(C)CC(=O)N(C)[C@H]3C/C=C\CCN(C3=O)[C@@H](Cc3ccc(C)cc3)C(=O)N(C)CC(=O)N[C@@H](CCc3cc(F)c(C(F)(F)F)c(F)c3)C(=O)N2C1 [PP1411, (2S,8S,12R,14S,20S,23S,27S,30S,36S,38Z)-20-cyclopentyl-27-(cyclopentylmethyl)-8-[2-[3,5-difluoro-4-(trifluoromethyl)phenyl]ethyl]-12-ethoxy-N,N,4,19,22,26,32,35-octamethyl-30-[(1S)-1-methylpropyl]-3,6,9,15,18,21,25,28,31,34,42-undecaoxo-2-(p-tolylmethyl)spiro[1,4,7,10,16,19,22,26,29,32,35-undecazatricyclo[34.5.1.0^10,14]dotetracont-38-ene-17,1′-cyclobutane]-23-carboxamide]
[1]
  Kd: 0.08 nM
[2]
  NRAS/KRAS (ratio of KD value for NRAS to KD value for KRAS): A (a compound having 10 or more and less than 20 is denoted as A)
[3]
  HRAS/KRAS (ratio of KD value for HRAS to KD value for KRAS): B (a compound having 3 or more and less than 10 is denoted as B)
[4]
  IC50: 6 nM

## CCO[C@@H]1C[C@H]2C(=O)NC3(CCC3)C(=O)N(C)[C@@H](C3CCCC3)C(=O)N(C)[C@H](C(=O)N3CCCC3)CC(=O)N(C)[C@@H](CC3CCCC3)C(=O)N[C@@H]([C@@H](C)CC)C(=O)N(C)CC(=O)N(C)[C@H]3C/C=C\CCN(C3=O)[C@@H](Cc3ccc(C)cc3)C(=O)N(C)CC(=O)N[C@@H](CCc3cc(F)c(C(F)(F)F)c(F)c3)C(=O)N2C1 [PP1412]
[1]
  Kd: 0.19 nM
[2]
  NRAS/KRAS (ratio of KD value for NRAS to KD value for KRAS): A (a compound having 10 or more and less than 20 is denoted as A)
[3]
  HRAS/KRAS (ratio of KD value for HRAS to KD value for KRAS): A (a compound having 10 or more and less than 20 is denoted as A)
[4]
  IC50: 23 nM

## CCO[C@@H]1C[C@H]2C(=O)NC3(CCC3)C(=O)N(C)[C@@H](C3CCCC3)C(=O)N(C)[C@H](C)CC(=O)N(C)[C@@H](CC3CCCC3)C(=O)N[C@@H]([C@@H](C)CC)C(=O)N(C)CC(=O)N(C)[C@H]3C/C=C\CCN(C3=O)[C@@H](Cc3ccc(C)cc3)C(=O)N(C)CC(=O)N[C@@H](CCc3cc(F)c(C(F)(F)F)c(F)c3)C(=O)N2C1 [PP1413]
[1]
  Kd: 0.42 nM
[2]
  NRAS/KRAS (ratio of KD value for NRAS to KD value for KRAS): B (a compound having 3 or more and less than 10 is denoted as B)
[3]
  HRAS/KRAS (ratio of KD value for HRAS to KD value for KRAS): B (a compound having 3 or more and less than 10 is denoted as B)
[4]
  IC50: 62.5 nM

## CCO[C@@H]1C[C@H]2C(=O)NC3(CCC3)C(=O)N(C)[C@@H](C3CCCC3)C(=O)N(C)[C@H](C(=O)N(C)C)CC(=O)N(C)[C@@H](CC(C)C)C(=O)N[C@@H]([C@@H](C)CC)C(=O)N(C)CC(=O)N(C)[C@H]3C/C=C\CCN(C3=O)[C@@H](Cc3ccc(C)cc3)C(=O)N(C)CC(=O)N[C@@H](CCc3cc(F)c(C(F)(F)F)c(F)c3)C(=O)N2C1 [PP1414, (2S,8S,12R,14S,20S,23S,27S,30S,36S,38Z)-20-cyclopentyl-8-[2-[3,5-difluoro-4-(trifluoromethyl)phenyl]ethyl]-12-ethoxy-27-isobutyl-N,N,4,19,22,26,32,35-octamethyl-30-[(1S)-1-methylpropyl]-3,6,9,15,18,21,25,28,31,34,42-undecaoxo-2-(p-tolylmethyl)spiro[1,4,7,10,16,19,22,26,29,32,35-undecazatricyclo[34.5.1.0^10,14]dotetracont-38-ene-17,1′-cyclobutane]-23-carboxamide]
[1]
  Kd: 0.074 nM
[2]
  NRAS/KRAS (ratio of KD value for NRAS to KD value for KRAS): A (a compound having 10 or more and less than 20 is denoted as A)
[3]
  HRAS/KRAS (ratio of KD value for HRAS to KD value for KRAS): B (a compound having 3 or more and less than 10 is denoted as B)
[4]
  IC50: 4.4 nM

## CCO[C@@H]1C[C@H]2C(=O)NC3(CCC3)C(=O)N(C)[C@@H](C3CCCC3)C(=O)N(C)[C@H](C(=O)N3CCOCC3)CC(=O)N(C)[C@@H](CC(C)C)C(=O)N[C@@H]([C@@H](C)CC)C(=O)N(C)CC(=O)N(C)[C@H]3C/C=C\CCN(C3=O)[C@@H](Cc3ccc(C)cc3)C(=O)N(C)CC(=O)N[C@@H](CCc3cc(F)c(C(F)(F)F)c(F)c3)C(=O)N2C1 [PP1415]
[1]
  Kd: 0.25 nM
[2]
  NRAS/KRAS (ratio of KD value for NRAS to KD value for KRAS): A (a compound having 10 or more and less than 20 is denoted as A)
[3]
  HRAS/KRAS (ratio of KD value for HRAS to KD value for KRAS): A (a compound having 10 or more and less than 20 is denoted as A)
[4]
  IC50: 9.5 nM

## CCO[C@@H]1C[C@H]2C(=O)NC3(CCC3)C(=O)N(C)[C@@H](C3CCCC3)C(=O)N(C)[C@H](C(=O)N3CCCC3)CC(=O)N(C)[C@@H](CC(C)C)C(=O)N[C@@H]([C@@H](C)CC)C(=O)N(C)CC(=O)N(C)[C@H]3C/C=C\CCN(C3=O)[C@@H](Cc3ccc(C)cc3)C(=O)N(C)CC(=O)N[C@@H](CCc3cc(F)c(C(F)(F)F)c(F)c3)C(=O)N2C1 [PP1416]
[1]
  Kd: 0.17 nM
[2]
  NRAS/KRAS (ratio of KD value for NRAS to KD value for KRAS): A (a compound having 10 or more and less than 20 is denoted as A)
[3]
  HRAS/KRAS (ratio of KD value for HRAS to KD value for KRAS): A (a compound having 10 or more and less than 20 is denoted as A)
[4]
  IC50: 3.8 nM

## CCO[C@@H]1C[C@H]2C(=O)NC3(CCC3)C(=O)N(C)[C@@H](C3CCCC3)C(=O)N(C)[C@H](C(=O)N3CCOCC3)CC(=O)N(C)[C@@H](CC3CCCCC3)C(=O)N[C@@H]([C@@H](C)CC)C(=O)N(C)CC(=O)N(C)[C@H]3C/C=C\CCN(C3=O)[C@@H](Cc3ccc(C(F)(F)F)cc3)C(=O)N(C)CC(=O)N[C@@H](CCc3cc(F)c(C(F)(F)F)c(F)c3)C(=O)N2C1 [PP1418]
[1]
  Kd: 0.24 nM
[2]
  NRAS/KRAS (ratio of KD value for NRAS to KD value for KRAS): AA (a compound having 20 or more is denoted as AA)
[3]
  HRAS/KRAS (ratio of KD value for HRAS to KD value for KRAS): A (a compound having 10 or more and less than 20 is denoted as A)
[4]
  IC50: 29.9 nM

## CCO[C@@H]1C[C@H]2C(=O)NC3(CCC3)C(=O)N(C)[C@@H](C3CCCC3)C(=O)N(C)[C@H](C(=O)N3CCCC3)CC(=O)N(C)[C@@H](CC3CCCCC3)C(=O)N[C@@H]([C@@H](C)CC)C(=O)N(C)CC(=O)N(C)[C@H]3C/C=C\CCN(C3=O)[C@@H](Cc3ccc(C(F)(F)F)cc3)C(=O)N(C)CC(=O)N[C@@H](CCc3cc(F)c(C(F)(F)F)c(F)c3)C(=O)N2C1 [PP1419]
[1]
  Kd: 0.26 nM
[2]
  NRAS/KRAS (ratio of KD value for NRAS to KD value for KRAS): AA (a compound having 20 or more is denoted as AA)
[3]
  HRAS/KRAS (ratio of KD value for HRAS to KD value for KRAS): A (a compound having 10 or more and less than 20 is denoted as A)
[4]
  IC50: 40.4 nM

## CCO[C@@H]1C[C@H]2C(=O)NC3(CCC3)C(=O)N(C)[C@@H](C3CCCC3)C(=O)N(C)[C@H](C(=O)N3CCOCC3)CC(=O)N(C)[C@@H](CC3CCCCC3)C(=O)N[C@@H]([C@@H](C)CC)C(=O)N(C)CC(=O)N(C)[C@H]3C/C=C\CCN(C3=O)[C@@H](Cc3ccc(C)cc3)C(=O)N(C)CC(=O)N[C@@H](CCc3cc(F)c(C(F)(F)F)c(F)c3)C(=O)N2C1 [PP1420]
[1]
  Kd: 0.35 nM
[2]
  NRAS/KRAS (ratio of KD value for NRAS to KD value for KRAS): A (a compound having 10 or more and less than 20 is denoted as A)
[3]
  HRAS/KRAS (ratio of KD value for HRAS to KD value for KRAS): A (a compound having 10 or more and less than 20 is denoted as A)
[4]
  IC50: 31.4 nM

## CCO[C@@H]1C[C@H]2C(=O)NC3(CCC3)C(=O)N(C)[C@@H](C3CCCC3)C(=O)N(C)[C@H](C(=O)N3CCOCC3)CC(=O)N(C)[C@@H](CC3CCC3)C(=O)N[C@@H]([C@@H](C)CC)C(=O)N(C)CC(=O)N(C)[C@H]3C/C=C\CCN(C3=O)[C@@H](Cc3ccc(C(F)(F)F)cc3)C(=O)N(C)CC(=O)N[C@@H](CCc3cc(F)c(C(F)(F)F)c(F)c3)C(=O)N2C1 [PP1422]
[1]
  Kd: 0.22 nM
[2]
  NRAS/KRAS (ratio of KD value for NRAS to KD value for KRAS): AA (a compound having 20 or more is denoted as AA)
[3]
  HRAS/KRAS (ratio of KD value for HRAS to KD value for KRAS): A (a compound having 10 or more and less than 20 is denoted as A)
[4]
  IC50: 14.1 nM

## CCO[C@@H]1C[C@H]2C(=O)NC3(CCC3)C(=O)N(C)[C@@H](C3CCCC3)C(=O)N(C)[C@H](C(=O)N3CCCC3)CC(=O)N(C)[C@@H](CC3CCC3)C(=O)N[C@@H]([C@@H](C)CC)C(=O)N(C)CC(=O)N(C)[C@H]3C/C=C\CCN(C3=O)[C@@H](Cc3ccc(C(F)(F)F)cc3)C(=O)N(C)CC(=O)N[C@@H](CCc3cc(F)c(C(F)(F)F)c(F)c3)C(=O)N2C1 [PP1423]
[1]
  Kd: 0.14 nM
[2]
  NRAS/KRAS (ratio of KD value for NRAS to KD value for KRAS): AA (a compound having 20 or more is denoted as AA)
[3]
  HRAS/KRAS (ratio of KD value for HRAS to KD value for KRAS): A (a compound having 10 or more and less than 20 is denoted as A)
[4]
  IC50: 4.4 nM
